Measurements taken from PMC6968685 (Journal of Enzyme Inhibition and Medicinal Chemistry, 2020).
Where a name gives a salt, the structure may show the parent alone.

Structure (SMILES)	melting point [°C]
CN(C)CCNCc1ccc(-c2cc(-c3ccc(CNCCN(C)C)cc3)c3ccccc3n2)cc1 (as salt: (cooh)2) [Compound 1c, 2,4-Bis{4-[(2-dimethylaminoethyl)aminomethyl]phenyl}quinoline]	229 to 231
COc1ccc2cc(-c3ccc(CNCCCN(C)C)cc3)nc(-c3ccc(CNCCCN(C)C)cc3)c2c1 (as salt: (cooh)2) [Compound 2f, 7-Methoxy-1,3-bis{4-[(3-dimethylaminopropyl)aminomethyl]phenyl}isoquinoline]	178 to 180
CN(C)CCCCNCc1ccc(-c2nc(-c3ccc(CNCCCCN(C)C)cc3)c3ccccc3n2)cc1 (as salt: (cooh)2) [Compound 3a, 2,4-Bis{4-[(4-dimethylaminobutyl)aminomethyl]phenyl}quinazoline]	153 to 155

Results, then the compound that gave them:

melting point [°C]	Structure (SMILES)
245 to 247	COc1ccc2c(-c3ccc(CNCCCN4CCN(C)CC4)cc3)cc(-c3ccc(CNCCCN4CCN(C)CC4)cc3)nc2c1 (as salt: (cooh)2) [Compound 1p, 7-Methoxy-2,4-bis{4-[(3–(4-methylpiperazin-1-yl)propyl)aminomethyl]phenyl}quinoline]
172 to 174	COc1ccc2cc(-c3ccc(CNCCCCN4CCN(C)CC4)cc3)nc(-c3ccc(CNCCCCN4CCN(C)CC4)cc3)c2c1 (as salt: (cooh)2) [Compound 2g, 7-Methoxy-1,3-bis{4-[(4–(4-methylpiperazin-1-yl)butyl)aminomethyl]phenyl}isoquinoline]
